What was measured:
smoking behavior = settings: cited from earlier work
[1] = tested on: tobacco consumption of habitual smokers; assay: General observations of treatment on tobacco consumption and subjective effects; type: in vivo, human (test subjects
Text: In a preferred embodiment, finely divided ethyl maltol is distributed in a chewing gum base, which when chewed by the subject, results in a gradual release of ethyl maltol into the oral cavity. When administered in appropriate amounts over a period of several days, there results a gradual decrease in the number of cigarettes smoked and the length of time they are smoked. […] Reductions in the frequency and quantity of smoking have been observed in test subjects who were unaware that their smoking behavior was monitored. […] Subjectively, test subjects experience a reduced desired to smoke, tend to neglect the opportunities to light up a cigarette and tend to leave cigarettes unsmoked in the ashtray after a few puffs. The effect is sufficiently subtle that a smoker is sometimes unaware that their tobacco consumption rate was decreased until such point as the lowered consumption rate becomes obvious. For smokers sincerely desiring to reduce or eliminate their smoking, the effect of the treatment is most gratifying. However, for smokers who are not psychologically committed to giving up smoking, the effects may be alarming. It is of course, possible to override the effects of the treatment by conscious effort to smoke at the pre-treatment rate.
Smoking behavior is complex and includes cigarette, pipe and cigar smoking. Both from the standpoint of habituation and of health hazard, cigarette smoking is considered to be the most serious. It is contemplated that the treatment method described herein will be effective to inhibit all forms of smoking behavior and combinations thereof, involving the consumption of tobacco. For convenience, the ensuing discussion focuses on cigarette smoking, as exemplary of smoking behavior in general. Tobacco consumption is a function the number of cigarettes smoked and the proportion of each cigarette smoked. Reduction of consumption is measured by comparison with a smoker's pretreatment consumption rate. All data used herein are expressed as percent reduction, i.e., the differential between pretreatment and current smoking consumption rate divided by the pretreatment rate, times 100. All rates are calculated to take into account both the number of cigarettes smoked and the proportion of each smoked.
Duration of treatment may be as little as ten days, preferably 20 to 30 days. As might be expected with a complex behavior such as smoking, where psychological and social factors play a major role in addition to individual variations in nicotine susceptibility and responsiveness to gamma pyrone, the rate of smoking reduction during treatment is highly variable. Typically, a gradual reduction to about 50% to the pretreatment rate is observed over the first four to six days. Frequently, little or no reduction is observed for the first two days, although occasionally a dramatic reduction is observed almost immediately. In the ensuing seven to ten days, further reductions, typically 70 to 100%, are observed. Reduction below the 50% level in the first 3-5 days is sometimes accompanied by the physiological (but not psychological) symptoms of nicotine withdrawl, such as vertigo, alimentary distress, diuresis, scotoma and disorientation. Such symptoms have never been observed in non-smoking control subjects using the same gamma pyrone dosages. […] The entire course of treatment is therefore extended somewhat, preferably to about 20 to 30 days total. […]

[2] = tested on: spontaneous motor activity; settings: mice, 75 mg/kg; cited from earlier work
[3] = tested on: convulsions produced by pentylenetetrazole or strychnine; settings: 300 to 500 mg per kg; cited from earlier work
[4] = tested on: hexobarbital-induced sleeping time; settings: 300 to 500 mg per kg; cited from earlier work
mice = settings: cited from earlier work
rat brain cortex slices = settings: in vitro; cited from earlier work
[5] = cited from earlier work
[6] = cited from earlier work; remark: listed apart in the source
[7] = tested on: rate of weight gain in animals; settings: animal feeds, up to 200 grams per ton; cited from earlier work

SMILES | effectiveness versus placebo for smoking (smoking behavior; controlled double blind tests) | pharmacological action (smoking behavior; in vivo) | withdrawal syndrome on discontinuation (smoking behavior; in vivo) | tobacco consumption of habitual smokers ([1]; appropriate dosage levels and rates) | minimum effective dose relative to ethyl maltol ([1]; in vivo) | spontaneous motor activity, decrease [2] | convulsions produced by pentylenetetrazole or strychnine [3] | hexobarbital-induced sleeping time [4] | acute LD50 (mice) | oxygen intake by rat brain cortex slices (rat brain cortex slices) | consumption per day ([5]; as much as 1.5 grams per day) | safe average daily intake ([5]; per day) | absorption ([6]; after oral administration) | excretion ([6]; after oral administration) | form of excretion ([6]; after oral administration) | metabolism and excretion ([6]; in vivo) | rate of weight gain [7]
CN1[C@@H](CC(=O)c2ccccc2)CCC[C@H]1C[C@H](O)c1ccccc1 [lobeline] | ineffective, i.e., no more effective than placebos | weak nicotine-like action | apparently discontinuable without a withdrawal syndrome | – | – | – | – | – | – | – | – | – | – | – | – | – | –
Cc1occc(=O)c1O [maltol, 3-hydroxy-2-methyl-4-pyrone] | – | – | – | significantly reduces the tobacco consumption of habitual smokers | 4 to 6 times greater | approximately 50% | inhibited convulsions | potentiating hexobarbital-induced sleeping time | 820 mg per kg | not affected | completely harmless | 1 mg per kg | rapidly absorbed | rapidly excreted | primarily as glucuronide and ethereal sulfate conjugates | rapidly metabolized and excreted | improves the rate of weight gain

— US4276890A, “Tobacco smoking inhibitor” (priority 1979, dated 1981)
